From article PMC8698320, “Inhibition of MurA Enzyme from Escherichia coli and Staphylococcus aureus by Diterpenes from Lepechinia meyenii and Their Synthetic Analogs” (Antibiotics, 2021)
In brackets after ≈: the same amount, converted by molar mass. Several values for one entry are separate records, joined by “and”; a condition that tells them apart may be missing. Equal values may be shown once. Read-outs that look alike come from different tables or passages of the source.

Experiments:
E. coli (ATCC 25922) = assay: Antibacterial susceptibility testing, MIC by broth microdilution, alone or with polymyxin B; format: cell-based, Escherichia coli; conditions: for MIC: Escherichia coli, read-out: MIC against E. coli; for MIC against E. coli with polymyxin B: with polymyxin B at sub-inhibitory concentration (half of the MIC, 0.49 µg/mL), permeabilized E. coli
Description: Overnight subcultures of the test organism carried out on plate count agar medium (PCA) were used.
After 24 h incubation at 37 °C with continuous shaking, absorbance was measured with an iMark micro-plate reader (Bio-Rad, Hercules, CA, USA) at 655 nm. Compound 1 was dissolved in DMSO, while compounds 4 and 6 were dissolved in ethanol or acetonitrile (ACN), respectively. Negative controls containing dissolution solvents at a final concentration of 2% or polymyxin B at 0.49 µg/mL were simultaneously carried out, and the growth was compared to the viability control, which contained only a culture medium. […] The large size of this glycopeptide antibiotic avoids its entrance into Gram-negative bacteria, while the addition of polymyxin B overcomes this inconvenience.

[1] = molecular target: T1, Staphylococcus aureus MurA (Staphylococcus aureus, UniProt Q931H5); assay: biochemical; conditions: for remaining activity at 100 µM: 10 min
T1 construct: made in house; host or cells: E. coli
T1 sequence (Q931H5 1-421): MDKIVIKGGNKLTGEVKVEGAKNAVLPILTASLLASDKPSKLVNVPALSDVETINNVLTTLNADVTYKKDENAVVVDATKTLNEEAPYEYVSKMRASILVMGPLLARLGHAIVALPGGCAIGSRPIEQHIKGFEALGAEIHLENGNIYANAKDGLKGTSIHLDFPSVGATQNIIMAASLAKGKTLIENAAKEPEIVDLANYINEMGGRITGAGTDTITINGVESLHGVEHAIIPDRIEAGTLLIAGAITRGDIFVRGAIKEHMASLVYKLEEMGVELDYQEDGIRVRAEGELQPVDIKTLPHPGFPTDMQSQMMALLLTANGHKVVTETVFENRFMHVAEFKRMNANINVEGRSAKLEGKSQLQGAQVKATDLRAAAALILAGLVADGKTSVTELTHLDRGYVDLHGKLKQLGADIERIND
Description: (§1) Polymyxin, UDP-GlcNAc, D-Ala-D-Ala, PEP, ATP and Hepes were purchased from Sigma-Aldrich Co. (St Louis, MO, USA). UDP-MurNAc-L-Ala-D-Glu-m-DAP was obtained from BACWAN facility, School of Life Sciences, The University of Warwick, UK. MurA from E. coli and S. aureus were recombinant, expressed in E. coli, while MurF from E. coli and S. aureus were recombinant expressed in E. coli.
MurA inhibition was determined with the colorimetric malachite green method in which the release of orthophosphate generated during the reaction is measured. […] Time-dependent inhibition assays were also performed. MurA was preincubated with substrate UDP-GlcNAc and target compounds for 10 min at 37 °C, and then the reaction was started by the addition of the second substrate PEP, resulting in a mixture with a final volume of 50 µL as above described. MurF was preincubated with compounds for 10 min at 37 °C, and the reaction was started by the addition of the above-mentioned substrates to get a mixture with a final volume of 50 µL, as already described. In both experiments, after incubation for 15 min at 37 °C, the reaction was stopped by adding Biomol® reagent (100 µL, Enzo Life Sciences, Inc., Farmingdale, NY, USA). The absorbance was measured at 650 nm after 5 min in a microplate reader (Synergy H4). The final concentration of DMSO in the reaction mixture was 5% (v/v). Fosfomycin was used as a reference in MurA assay. The percentage of RA was calculated in comparison to negative controls containing only 5% DMSO. […] The results are expressed as mean ± standard error.

Escherichia coli MurA = molecular target: T2, Escherichia coli MurA (Escherichia coli, UniProt P0A749); assay: MurA inhibition, colorimetric malachite green method; format: biochemical; conditions: for remaining activity at 100 µM: 10 min, residual activity at 100 µM, read-out: RA % Escherichia coli MurA
T2 construct: made in house; host or cells: E. coli
Description: as §1
MurA inhibition was determined with the colorimetric malachite green method in which the release of orthophosphate generated during the reaction is measured. Briefly, 2.5 µL of each tested compound previously dissolved in DMSO at a concentration of […], were added in duplicate to 50 µL of the reaction mixture containing 50 mM HEPES pH 7.8, 0.005% Triton X-114, 200 µM UDP-GlcNAc, 100 µM PEP and purified MurA (200 nM) diluted in 50 mM Hepes at pH 7.8. The 50 µL reaction mixture for MurF inhibitory assay contained 50 mM Hepes pH 8.0, 50 mM MgCl2, 0.005% Triton X-114, 600 µM D-Ala-D-Ala, 100 µM UDP-MurNAc-L-Ala-D-Glu-m-DAP, 500 µM ATP and purified MurF (8 nM). Time-dependent inhibition assays were also performed. MurA was preincubated with substrate UDP-GlcNAc and target compounds for 10 min at 37 °C, and then the reaction was started by the addition of the second substrate PEP, resulting in a mixture with a final volume of 50 µL as above described. MurF was preincubated with compounds for 10 min at 37 °C, and the reaction was started by the addition of the above-mentioned substrates to get a mixture with a final volume of 50 µL, as already described. In both experiments, after incubation for 15 min at 37 °C, the reaction was stopped by adding Biomol® reagent (100 µL, Enzo Life Sciences, Inc., Farmingdale, NY, USA). The absorbance was measured at 650 nm after 5 min in a microplate reader (Synergy H4). The final concentration of DMSO in the reaction mixture was 5% (v/v). Fosfomycin was used as a reference in MurA assay. The percentage of RA was calculated in comparison to negative controls containing only 5% DMSO. […] The results are expressed as mean ± standard error.

[2] = system: methicillin-sensitive and resistant Staphylococcus aureus (MSSA and MRSA); conditions: growth curves of treated MSSA and MRSA; cited from earlier work
[3] = ATCC25922, compound alone, 24 h, 37 °C, Mueller–Hinton broth
[4] = time of preincubation: 10 min, read-out: IC50 Staphylococcus aureus MurA (converted)
[5] = time of preincubation: 10 min, read-out: IC50 Escherichia coli MurA (converted)
[6] = IC50 Staphylococcus aureus MurA, time of preincubation: 10 min
[7] = IC50 Escherichia coli MurA, time of preincubation: 10 min
[8] = residual activity at 100 µM, time of preincubation: 10 min, read-out: RA % Staphylococcus aureus MurA

T2 sequence (P0A749 whole entry): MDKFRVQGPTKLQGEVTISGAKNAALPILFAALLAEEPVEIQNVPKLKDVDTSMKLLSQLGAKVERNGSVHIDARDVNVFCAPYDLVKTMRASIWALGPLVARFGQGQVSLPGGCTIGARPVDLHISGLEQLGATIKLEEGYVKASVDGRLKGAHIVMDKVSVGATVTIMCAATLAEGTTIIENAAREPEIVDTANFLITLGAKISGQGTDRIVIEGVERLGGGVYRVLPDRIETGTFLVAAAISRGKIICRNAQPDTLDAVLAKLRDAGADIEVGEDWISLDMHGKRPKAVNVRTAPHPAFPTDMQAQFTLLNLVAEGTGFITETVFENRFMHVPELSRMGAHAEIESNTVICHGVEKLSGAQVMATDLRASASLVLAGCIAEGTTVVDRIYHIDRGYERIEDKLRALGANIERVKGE

SMILES: CC(C)c1cc2c(c(O)c1O)[C@@]13CCCC(C)(C)[C@@H]1C[C@@H]2OC3=O [Compound 1, carnosol]
- MIC (E. coli (ATCC 25922); [3]): > 250 µg/mL
- MIC against E. coli with polymyxin B (E. coli (ATCC 25922)): 125 µg/mL
- IC50 ([1]; time of preincubation = 0 min, read-out: IC50 Staphylococcus aureus MurA (converted)): 61 µM
- IC50 [1, 4]: 1.1 µM
- IC50 (Escherichia coli MurA; time of preincubation = 0 min, read-out: IC50 Escherichia coli MurA (converted)): 66 µM
- IC50 (Escherichia coli MurA; [5]): 2.8 µM

SMILES: CC(C)c1cc2c(c(O)c1O)[C@@]13CCCC(C)(C)[C@@H]1[C@H](OC3=O)[C@H]2O [Compound 2, rosmanol]
- IC50 [1, 4]: 5.7 µM
- IC50 (Escherichia coli MurA; [5]): 12.9 µM

SMILES: CC(C)c1cc2c(c(O)c1O)[C@@]1(C(=O)O)CCCC(C)(C)[C@@H]1CC2 [Compound 3, carnosic acid]
- IC50 [1, 6]: 12 µM and 12.3 µM
- IC50 (Escherichia coli MurA; [7]): 25 µM and 25.1 µM

SMILES: COC(=O)[C@]12CCCC(C)(C)[C@@H]1CCc1cc(C(C)C)c(O)c(O)c12 [Compound 4, 20-methyl carnosate]
- MIC (E. coli (ATCC 25922); [3]): > 250 µg/mL
- MIC against E. coli with polymyxin B (E. coli (ATCC 25922)): 3.9 µg/mL
- remaining activity at 100 µM ([1]; read-out: RA % Staphylococcus aureus MurA, residual activity at 100 µM, time of preincubation: 10 min): 0 to 28%
- IC50 ([1]; IC50 Staphylococcus aureus MurA, time of preincubation = 0 min): 67 µM
- IC50 [1, 6]: 3.4 µM
- remaining activity at 100 µM (Escherichia coli MurA; time of preincubation: 10 min): 0 to 28%
- IC50 (Escherichia coli MurA; IC50 Escherichia coli MurA, time of preincubation = 0 min): 48 µM
- IC50 (Escherichia coli MurA; [7]): 2.8 µM

SMILES: CC(C)c1cc2c3c(c1O)OC(=O)[C@@]31CCCC(C)(C)[C@@H]1CC2 [Compound 6, carnosic acid-γ-lactone]
- MIC (E. coli (ATCC 25922); [3]): > 250 µg/mL
- MIC against E. coli with polymyxin B (E. coli (ATCC 25922)): 125 µg/mL
- IC50 [1, 4]: 7.9 µM
- IC50 (Escherichia coli MurA; [7]): 4.8 µM

SMILES: CC(C)c1cc2c(cc1O)[C@@]1(C)CCC[C@@](C)(C(=O)O)[C@@H]1CC2 [Compound 9, 12-hydroxy-dehydroabietic acid]
- IC50 [1, 6]: 55.2 µM
- IC50 (Escherichia coli MurA; [5]): 49.4 µM

SMILES: COC(=O)[C@]1(C)CCC[C@]2(C)c3cc(O)c(/C(C)=N/O)cc3CC[C@@H]12 [Compound 12]
- remaining activity at 100 µM [1, 8]: 72 to 100%
- delay/reduction in the growth rate of MSSA and MRSA, until time [2]: up to 6 h

SMILES: CC/C(=N\O)c1cc2c(cc1O)[C@@]1(C)CCC[C@@](C)(C(=O)OC)[C@@H]1CC2 [Compound 13]
- remaining activity at 100 µM [1, 8]: 72 to 100%

SMILES: COC(=O)[C@]1(C)CCC[C@]2(C)c3cc(O)c(/C(C)=N/O)cc3/C(=N/O)C[C@@H]12 [Compound 14]
- remaining activity at 100 µM [1, 8]: 72 to 100%

SMILES: CN[C@H](CC(C)C)C(=O)N[C@H]1C(=O)N[C@@H](CC(N)=O)C(=O)N[C@H]2C(=O)N[C@H]3C(=O)N[C@H](C(=O)N[C@H](C(=O)O)c4cc(O)cc(O)c4-c4cc3ccc4O)[C@H](O)c3ccc(c(Cl)c3)Oc3cc2cc(c3O[C@@H]2O[C@H](CO)[C@@H](O)[C@H](O)[C@H]2O[C@H]2C[C@](C)(N)[C@H](O)[C@H](C)O2)Oc2ccc(cc2Cl)[C@H]1O [Vancomycin, vancomycin, reference compound]
- MIC (E. coli (ATCC 25922); ATCC25922, 24 h): 250 µg/mL (≈ 173 µM)
- MIC against E. coli with polymyxin B (E. coli (ATCC 25922)): 62.5 µg/mL

SMILES: C[C@@H]1O[C@@H]1P(=O)(O)O [fosfomycin, reference compound]
- remaining activity at 100 µM [1, 8]: 0%
- IC50 [1, 4]: 0.3 µM
- remaining activity at 100 µM (Escherichia coli MurA; time of preincubation: 10 min): 0%
- IC50 (Escherichia coli MurA; [7]): 0.21 µM
